According to US9783537B2, “3-(4-ethylnylphenyl) pyridopyrimidinone compounds and process for preparation thereof useful as potential anticancer agents” (Council of Scientific & Industrial Research, priority 2013, dated 2017):
Like-named read-outs stand apart in the source and are kept apart here.

Columns and labels:
HL-60(TB) = test: SRB 48 h growth assay, Leukemia HL-60(TB); format: cell-based, human
K-562 = test: SRB 48 h growth assay, Leukemia K-562; format: cell-based, human
RPMI-8226 = test: SRB 48 h growth assay, Leukemia RPMI-8226; format: cell-based, human; conditions: RPMI-8226, Leukemia
A549/ATCC = test: SRB 48 h growth assay, Non-small Cell Lung A549/ATCC; format: cell-based, human
NCI-H226 = test: SRB 48 h growth assay, Non-small Cell Lung NCI-H226; format: cell-based, human; conditions: Homo sapiens
NCI-H522 = test: SRB 48 h growth assay, Non-small Cell Lung NCI-H522; format: cell-based, human
SW-620 = test: SRB 48 h growth assay, Colon SW-620; format: cell-based, human; conditions: Homo sapiens, SW-620, Colon
SNB-75 = test: SRB 48 h growth assay, CNS SNB-75; format: cell-based, human; conditions: SNB-75, CNS
LOX IMVI = test: SRB 48 h growth assay, Melanoma LOX IMVI; format: cell-based, human
M14 = test: SRB 48 h growth assay, Melanoma M14; format: cell-based, human
MDA-MB-435 = test: SRB 48 h growth assay, Melanoma MDA-MB-435; format: cell-based, human; conditions: MDA-MB-435, Melanoma
SK-MEL-5 = test: SRB 48 h growth assay, Melanoma SK-MEL-5; format: cell-based, human; conditions: SK-MEL-5, Melanoma
UACC-62 = test: SRB 48 h growth assay, Melanoma UACC-62; format: cell-based, human; conditions: UACC-62, Melanoma
SK-OV-3 = test: SRB 48 h growth assay, Ovarian SK-OV-3; format: cell-based, human; conditions: SK-OV-3, Ovarian
ACHN = test: SRB 48 h growth assay, Renal ACHN; format: cell-based, human
TK-10 = test: SRB 48 h growth assay, Renal TK-10; format: cell-based, human; conditions: TK-10, Renal
PC-3 = test: SRB 48 h growth assay, Prostate PC-3; format: cell-based, human; conditions: PC-3, Prostate
DU-145 = test: SRB 48 h growth assay, Prostate DU-145; format: cell-based, human; conditions: DU-145, Prostate
MCF7 = test: SRB 48 h growth assay, Breast MCF7; format: cell-based, human
MDA-MB-231/ATCC = test: SRB 48 h growth assay, Breast MDA-MB-231/ATCC; format: cell-based, human
BT-549 = test: SRB 48 h growth assay, Breast BT-549; format: cell-based, human; conditions: BT-549, Breast
MDA-MB-468 = test: SRB 48 h growth assay, Breast MDA-MB-468; format: cell-based, human; conditions: MDA-MB-468, Breast
[1] = system: six leukemia cancer cell lines (CCRF-CEM, HL-60, K-562, MOLT-4, SR and RPMI-8226); test: in vitro anticancer activity, leukemia panel; format: cell-based; conditions: Homo sapiens, exposure at least 48 h, read-out: GI50, range over panel
[2] = system: seven colon cancer cell line (COLO 205, HCC-2998, HCT-116, HCT-15, HT29, KM12 and SW-620); test: in vitro anticancer activity, colon panel; format: cell-based; conditions: Homo sapiens; seven colon cancer cell lines, exposure at least 48 h; read-out: GI50, range over panel
[3] = system: six CNS cancer cell line (SF-268, SF-295, SF-539, SNB-19, SNB-75 and U251); test: in vitro anticancer activity, CNS panel; format: cell-based; conditions: Homo sapiens; six CNS cancer cell lines, exposure at least 48 h; read-out: GI50, range over panel
[4] = in vitro anticancer activity, melanoma panel; format: cell-based; conditions: Homo sapiens; nine melanoma cell lines, exposure at least 48 h; read-out: GI50, range over panel
[5] = Homo sapiens, read-out: Growth Inhibition GI50
[6] = Homo sapiens, read-out: Log10 GI50 (converted)
[7] = Homo sapiens, read-out: Log10 LC50 (converted)
[8] = read-out: Growth Inhibition GI50
[9] = read-out: Log10 GI50 (converted)

## C#Cc1ccc(-n2c(/C=C/c3ccc4ccccc4c3)nc3ncccc3c2=O)cc1 [4s, (E)-3-(4-Ethynylphenyl)-2-(2-(naphthalen-2-yl)vinyl)pyrido[2,3-d]pyrimidin-4(3H)-one]
HL-60(TB)
  Log10 TGI50: −5.05
HL-60(TB); [5]
  GI50: 1.66 µM
HL-60(TB); [6]
  GI50: 1.66 µM
HL-60(TB); [7]
  CC50: 8.91 µM
K-562; Homo sapiens, K562, K-562, Leukemia, read-out: Growth Inhibition GI50
  GI50: 2.43 µM
K-562; Homo sapiens, K562, K-562, Leukemia, read-out: Log10 GI50 (converted)
  GI50: 2.45 µM
K-562; Homo sapiens, K562, K-562, Leukemia, read-out: Log10 LC50 (converted)
  CC50: > 100 µM
K-562; K-562, Leukemia
  Log10 TGI50: ->−4.00
RPMI-8226; [5]
  GI50: 0.45 µM
RPMI-8226; [6]
  GI50: 0.447 µM
RPMI-8226; [7]
  CC50: > 100 µM
RPMI-8226
  Log10 TGI50: >−4.00
A549/ATCC
  Log10 TGI50: >−4.00
A549/ATCC; [5]
  GI50: 2.73 µM
A549/ATCC; [6]
  GI50: 2.75 µM
A549/ATCC; [7]
  CC50: > 100 µM
NCI-H226; [8]
  GI50: 2.33 µM
NCI-H226; [9]
  GI50: 2.34 µM
NCI-H522
  Log10 TGI50: >−4.00
NCI-H522; [5]
  GI50: 5.11 µM
NCI-H522; [6]
  GI50: 5.13 µM
NCI-H522; [7]
  CC50: > 100 µM
SW-620; [8]
  GI50: 2.22 µM
SW-620; [9]
  GI50: 2.24 µM
SNB-75; [5]
  GI50: 3.69 µM
SNB-75; [6]
  GI50: 2.95 µM
SNB-75; [7]
  CC50: > 100 µM
SNB-75
  Log10 TGI50: >−4.00
LOX IMVI
  Log10 TGI50: −5.51
LOX IMVI; [5]
  GI50: 0.51 µM
LOX IMVI; [6]
  GI50: 0.513 µM
LOX IMVI; [7]
  CC50: 3.09 µM
M14
  Log10 TGI50: −5.36
M14; [5]
  GI50: 2.07 µM
M14; [6]
  GI50: 2.09 µM
M14; [7]
  CC50: 4.37 µM
MDA-MB-435; [5]
  GI50: 2.06 µM
MDA-MB-435; [6]
  GI50: 2.04 µM
MDA-MB-435; [7]
  CC50: > 100 µM
MDA-MB-435
  Log10 TGI50: >−4.00
SK-MEL-5; [5]
  GI50: 1.16 µM
SK-MEL-5; [6]
  GI50: 1.15 µM
SK-MEL-5; [7]
  CC50: 2.51 µM
SK-MEL-5
  Log10 TGI50: −5.60
UACC-62; [5]
  GI50: 2.49 µM
UACC-62; [6]
  GI50: 2.51 µM
UACC-62; [7]
  CC50: > 100 µM
UACC-62
  Log10 TGI50: >−4.00
SK-OV-3; [5]
  GI50: 7.55 µM
SK-OV-3; [6]
  GI50: 7.59 µM
SK-OV-3; [7]
  CC50: > 100 µM
SK-OV-3
  Log10 TGI50: >−4.00
ACHN
  Log10 TGI50: >−4.00
ACHN; [5]
  GI50: 2.57 µM
ACHN; [6]
  GI50: 2.57 µM
ACHN; [7]
  CC50: > 100 µM
TK-10; [5]
  GI50: 4.04 µM
TK-10; [6]
  GI50: 4.07 µM
TK-10; [7]
  CC50: > 100 µM
TK-10
  Log10 TGI50: >−4.00
PC-3; [5]
  GI50: 2.35 µM
PC-3; [6]
  GI50: 2.34 µM
PC-3; [7]
  CC50: > 100 µM
PC-3
  Log10 TGI50: >−4.00
DU-145
  Log10 TGI50: >−4.00
DU-145; [5]
  GI50: 7.45 µM
DU-145; [6]
  GI50: 7.41 µM
DU-145; [7]
  CC50: > 100 µM
MCF7
  Log10 TGI50: >−4.00
MCF7; [5]
  GI50: 2.43 µM
MCF7; [6]
  GI50: 2.45 µM
MCF7; [7]
  CC50: > 100 µM
MDA-MB-231/ATCC
  Log10 TGI50: >−4.00
MDA-MB-231/ATCC; [5]
  GI50: 3.74 µM
MDA-MB-231/ATCC; [6]
  GI50: 3.72 µM
MDA-MB-231/ATCC; [7]
  CC50: > 100 µM
BT-549
  Log10 TGI50: −5.26
BT-549; [5]
  GI50: 1.98 µM
BT-549; [6]
  GI50: 2 µM
BT-549; [7]
  CC50: 5.5 µM
MDA-MB-468; [5]
  GI50: 0.96 µM
MDA-MB-468; [6]
  GI50: 0.955 µM
MDA-MB-468; [7]
  CC50: 7.76 µM
MDA-MB-468
  Log10 TGI50: −5.11
[1]
  GI50: 0.26 to 0.45 µM
[2]
  GI50: 0.3 to 0.36 µM
[3]
  GI50: 0.2 to 0.72 µM
[4]
  GI50: 0.19 to 1.21 µM
